Like-named read-outs stand apart in the source and are kept apart here.
Tests used:
[1] = test system: human fibrosarcoma HT-1080 cells; test: Effect on human fibrosarcoma HT-1080 cells (trypan blue dye exclusion); type: cell-based; settings: for viability at 25 µg/mL / viability at 50 µg/mL / viability at 100 µg/mL / viability at 150 µg/mL: HT-1080, read-out: Percent survival; for viability at 25 µg/mL: 25 μg/ml; for viability at 50 µg/mL: 50 μg/ml
Protocol: Human fibrosarcoma cells were cultured in Minimum essential medium (Eagle) with non-essential amino acids and Earls balanced salt solution supplemented with 10% heat-inactivated fetal bovine serum. Cells (5×10^3 in 0.5 ml of growth medium) were plated in 16 well plates and incubated at 37° C. in a humidified atmosphere of 5% CO2 in air for 24 h. Cells were then treated with different doses of C1. Control wells received vehicle only (<0.5% ethanol in saline). After further incubation periods of 24 and 48 h, the viability of cells was determined by trypan blue dye exclusion method.

MT-4 cells = test: Toxicity to MT-4 cells; type: cell-based, human; settings: drug doses of the HIV-1 test (75-125 μg/ml)
Protocol: After 2 h at 37° C., treated and control HIV-1 samples were added to the indicator MT-4 cells (cultured human T cells) in the presence of 2 μg/ml POLYBRENE™ for 2 h. After washing, MT-4 cells were cultured in the presence of drug-treated or control (untreated) HIV-1. Cell viability of MT-4 cells was determined by the trypan blue dye exclusion method.

breast tumor = test: Human tumor cloning system, breast tumors; type: cell-based; settings: responsive = at least 50% inhibition of tumor colony formation
Protocol: (§1) Through the initial work of Hamburger and Salmon (1977 a,b), it is possible to culture human tumors using a two-layer soft agar system. This culture system, called the human tumor cloning system, was initially utilized to select the most appropriate anticancer agent for an individual patient's tumor. […] In an in vitro-in vivo correlation study involving 800 patients retrospectively, it was determined that the true positive rate for this assay was 70%, while the true negative rate for the assay was 98% (Von Hoff et al., 1981). In a more recent prospective clinical trial of the cloning system involving 604 patients, the percent true positive for the assay was 64%, while the percent true negative for the assay was 86% (Von Hoff et al., 1983). […] This system was used to study the response of compound C1 for breast cancer and non-small cell lung carcinoma.
(§2) Collection and preparation of tumor cells: After obtaining informed consent in accordance with federal and institutional guidelines, malignant effusions, ascites and bone marrow aspirates containing tumor cells as well as solid tumor specimens were collected from patients undergoing procedure carried out as a part of their diagnostic workup or as part of treatment for their disease. […] The viability of cell suspensions thus obtained was determined with trypan blue.
(§3) Tumor cells to be cloned were suspended in 0.3% agar in enriched CMRL 1066 medium (Gibco, Grand Island, N.Y.) supplemented with 15% heat-inactivated horse serum, penicillin (100 units/ml), streptomycin (2 mg/ml) glutamine (2 mM), insulin (3 units/ml), asparagine (0.6 mg/ml), and HEPES buffer (2 mM). […] After an incubation period of 14 days, plates were removed and the number of colonies were counted in each plate. The number of colonies (defined as >50 cells) formed were compared in drug treated and untreated (control) plates and the percent colonies surviving at each drug dose tested was then calculated as a percentage of control. […]

[2] = test system: lung carcinoma (non-small cell); test: Human tumor cloning system, lung carcinoma (non-small cell); type: cell-based; settings: responsive = at least 50% inhibition of tumor colony formation
Protocol: as §1, §2, §3

MALME-3M = test: NCI tumor cell line screen (SRB assay); type: cell-based; settings: Homo sapiens, read-out: PERCENT GROWTH
Protocol: The National Cancer Institute carried out the studies at the direction of the present inventor.
In the tests, the National Cancer Institute used the SRB (sulforhodamine B) assay as described by Skehan et al., (Journal of the National Cancer Institute, 82:13, Jul. 4, 1990, 1107-1112). Briefly, the assay is as follows. TCA-fixed cells were stained for 30 minutes with 0.4% (wt/vol) SRB dissolved in 1% acetic acid. At the end of the staining period, SRB was removed and cultures were quickly rinsed four times with 1% acetic acid to remove unbound dye. The acetic acid was poured directly into the culture wells from a beaker. […] Residual wash solution was removed by sharply flicking plates over a sink, which ensured the complete removal of rinsing solution. […] After being rinsed, the cultures were air dried until no standing moisture was visible. Bound dye was solubilized with 10 mM unbuffered Tris base (pH 10.5) for 5 minutes on a gyratory shaker.
Optical density (OD) was read in either a UVmax microtiter plate reader (Molecular Devices, Menlo Park, Calif.) or a Beckman DU-70 spectrophotometer. For maximum sensitivity, OD was measured at 564 nm. Because readings were linear with dye concentrations only below 1.8 OD units, however, suboptimal wavelengths were generally used, so that all samples in an experiment remained within the linear OD range. With most cell lines, wavelengths of approximately 490-530 nm worked well for this purpose.
Nine different non-small cell lung carcinoma cell lines, six different colon carcinoma cell lines, six different CNS (central nervous system) carcinoma cell lines, seven different melanoma cell lines, six different ovarian carcinoma cell lines, and eight different renal carcinoma cell lines were tested.

human prostate tumors = test: Established human prostate tumors implanted in mice, intramuscular treatment; type: in vivo; settings: 100 mg/kg intramuscular, alternate days, after 5 weeks
Protocol: Similar experiments were carried out where implanted human prostate tumors (2×2 mm) were allowed to become established. Eight days later, the tumor size was ≈5×5 mm. Treatment was initiated which consisted of intramuscular injections of C1 (100 mg/kg) given on alternate days. After 5 weeks of treatment, tumors were not detectable by palpation in 2 of 3 animals. […] Untreated control mice (n=3), had tumors at 5 weeks of average size of 10×9mm.

[3] = Homo sapiens, 24 h, control 92.3 ± 3.1
[4] = Homo sapiens, 48 h, control 92.4 ± 3.1

CCCCN1C(=O)CC(=O)N(CCCC)C1=S [Compound C1, 4,6(1H, 5H)-pyrimidinedione, 1,3-dibutyldihydro-2-thioxo]
fibrosarcoma cells killed ([1]; 25 μg/ml (lowest dose), 48 h): virtually all fibrosarcoma cells were killed
fibrosarcoma cells killed ([1]; 100 μg/ml, 24 h): Virtually all fibrosarcoma cells were killed
fibrosarcoma cells killed ([1]; 150 μg/ml, 24 h): Virtually all fibrosarcoma cells were killed
cytotoxicity at 50 µg/mL ([1]; Homo sapiens, HT-1080, 24 h, read-out: cells killed): > 92%
viability at 25 µg/mL [1, 3]: 0.03 ± 0.03%
viability at 25 µg/mL [1, 4]: 0%
viability at 50 µg/mL [1, 3]: 0.03 ± 0.03%
viability at 50 µg/mL [1, 4]: 0%
viability at 100 µg/mL ([1]; Homo sapiens, 100 μg/ml, 24 h, control 92.3 ± 3.1): 0%
viability at 100 µg/mL ([1]; Homo sapiens, 100 μg/ml, 48 h, control 92.4 ± 3.1): 0%
viability at 150 µg/mL ([1]; Homo sapiens, 150 μg/ml, 24 h, control 92.3 ± 3.1): 0%
viability at 150 µg/mL ([1]; Homo sapiens, 150 μg/ml, 48 h, control 92.4 ± 3.1): 0%
toxicity to the MT-4 cells (MT-4 cells): not toxic to the MT-4 cells
# responsive tumors/total # evaluated (breast tumor; 75 μg/ml): 3/8
# responsive tumors/total # evaluated (breast tumor; 100 μg/ml): 4/8
# responsive tumors/total # evaluated (breast tumor; 125 μg/ml): 6/8
# responsive tumors/total # evaluated ([2]; 75 μg/ml): 0/1
# responsive tumors/total # evaluated ([2]; 100 μg/ml): 1/1
# responsive tumors/total # evaluated ([2]; 125 μg/ml): 1/1
activity (MALME-3M; 10^-3.0 Molar): -83%
activity at 100 µM (MALME-3M; 10^-4.0 Molar): 81%
activity at 10 µM (MALME-3M; 10^-5.0 Molar): 101%
activity at 1 µM (MALME-3M; 10^-6.0 Molar): 101%
activity at 0.1 µM (MALME-3M; 10^-7.0 Molar): 101%
tumors not detectable by palpation (human prostate tumors): 2 of 3

Reference: patent US5869494A, “Uses for barbituric acid analogs” (priority 1997, dated 1999)
